The source of these data is ChEMBL document CHEMBL3272000, “Local anesthetics. 2-Diethylamino-2',6'-acylxylidides” (J Med Chem, 1976).

For series [1], the system named is Rattus norvegicus. Nature of the series: Local anesthetic activity in rat assessed as frequency of motor activity block at 0.125 % injected around sciatic nerve. It counts as functional.
The test system of series [2] is Rattus norvegicus. Nature of the series: Local anesthetic activity in rat assessed as time duration of motor activity block at 0.50 % injected around sciatic nerve. It counts as functional.
Series [3] concerns Rattus norvegicus. Briefly: Local anesthetic activity in rat assessed as frequency of motor activity block at 0.50 % injected around sciatic nerve. The series is classed as functional.
Series [4] concerns Rattus norvegicus. Briefly: Local anesthetic activity in rat assessed as frequency of motor activity block at 0.25 % injected around sciatic nerve. The series is classed as functional.
The subject of series [5] is Rattus norvegicus. Nature of the series: Local anesthetic activity in rat assessed as time duration of motor activity block at 0.125 % injected around sciatic nerve. The series is classed as functional.
The nature of series [6]: Ionization constant, pKa of the compound. The series is classed as physicochemical.
For series [7], the system named is Rattus norvegicus. Nature of the series: Local anesthetic activity in rat assessed as time duration of motor activity block at 0.25 % injected around sciatic nerve. It counts as functional.
For series [8], the system named is Rattus norvegicus. Nature of the series: Local anesthetic activity in rat assessed as time duration of motor activity block at 1 % injected around sciatic nerve. It counts as functional.
Series [9] deals with Rattus norvegicus. Briefly: Local anesthetic activity in rat assessed as frequency of motor activity block at 2 % injected around sciatic nerve. It counts as functional.
Series [10] deals with Rattus norvegicus. Briefly: Local anesthetic activity in rat assessed as time duration of motor activity block at 2 % injected around sciatic nerve. It counts as functional.
Series [11] in a line: Toxicity in ip dosed rat. The note with it: in vivo. The series is classed as organism-based.
The test system of series [12] is Rattus norvegicus. Nature of the series: Local anesthetic activity in rat assessed as frequency of motor activity block at 1 % injected around sciatic nerve. It counts as functional.

For the compound `CCN(CC)C(C)C(=O)Nc1c(C)cccc1C` (stereo unspecified), the Activity in series [1], in [3], in series [4], in series [9] and in series [12] was 100% each time. Besides, the Time turned out to be 104 min in series [2]; 82 min in series [5]; 92 min in series [7]; 114 min in series [8]; 160 min in series [10]. Also, the pKa in series [6] is 8.12. Besides, the LD50 in [11] came to 89 mg/kg.
Take `CCC(C(=O)Nc1c(C)cccc1C)N(CC)CC.Cl` (stereo unspecified): the Activity in series [1], in series [3], in series [4], in series [9] and in [12] was 100% each time. Moreover, the Time amounted to 297 min in series [2]; 156 min in [5]; 235 min in [7]; 308 min in series [8]; 318 min in [10]. Also, the pKa in series [6] is 7.91. The same compound showed an LD50 in series [11] of 54 mg/kg.
`CCCC(C(=O)Nc1c(C)cccc1C)N(CC)CC.Cl` (stereo unspecified): the Activity in series [1], in series [3], in series [4], in series [9] and in [12] was 100% in each case. For the same compound, the Time in series [2] was 140 min; in series [5], 117 min; in series [7], 123 min; in [8], 179 min; in series [10], 268 min. The compound also came in with a pKa in [6] of 7.89. This compound also returned an LD50 in series [11] of 51 mg/kg.
On to `CCCCC(C(=O)Nc1c(C)cccc1C)N(CC)CC.Cl` (stereo unspecified), for which the Activity in [1] worked out at 80%; in series [3] it was 100%; in [4], 60%; in [9] it was 80%; in series [12], 100%. For the same compound, the Time is listed as 119 min in series [2]; 92 min in series [5]; 111 min in series [7]; 196 min in series [8]; 246 min in series [10]. This compound also gave a pKa in series [6] of 7.81. This compound showed an LD50 in series [11] of 44 mg/kg.
With `CCN(CC)CC(=O)Nc1c(C)cccc1C` [LIDOCAINE], the Time is listed as 123 min in series [2], 102 min in series [7], 162 min in series [8] and 185 min in series [10]. Besides, the Activity in [3], in [4], in series [9] and in [12] was 100% throughout.

In general, pKa refers to the negative logarithm of the acid dissociation constant. Lower therefore signals a group that gives up its proton readily. The LD50 is the dose expected to kill half of the subjects tested. A high value points to a less toxic substance.
